Earlier results, collected in patent US20140045904A1, “NIACIN FORMULATIONS AND METHODS WITH REDUCED FLUSHING SIDE EFFECT” (priority 2010, published 2014).

Key:
niacin-induced flushing = settings: rofecoxib: single dose of 500 mg immediate-release niacin; laropiprant: clinical trials; aspirin: oral niacin
rat macrophages = settings: dual inhibitor of COX-1 and COX-2
PGD-2 = settings: niacin given orally (500 mg)
prostacyclin (PGI-2) = settings: ingestion of oral niacin
HDL cholesterol = settings: low doses of niacin (300-1,000 mg/day)
COX-2 = COX-2 (Homo sapiens, UniProt P35354); settings: while sparing COX-1
COX-2, sequence (P35354 18-604): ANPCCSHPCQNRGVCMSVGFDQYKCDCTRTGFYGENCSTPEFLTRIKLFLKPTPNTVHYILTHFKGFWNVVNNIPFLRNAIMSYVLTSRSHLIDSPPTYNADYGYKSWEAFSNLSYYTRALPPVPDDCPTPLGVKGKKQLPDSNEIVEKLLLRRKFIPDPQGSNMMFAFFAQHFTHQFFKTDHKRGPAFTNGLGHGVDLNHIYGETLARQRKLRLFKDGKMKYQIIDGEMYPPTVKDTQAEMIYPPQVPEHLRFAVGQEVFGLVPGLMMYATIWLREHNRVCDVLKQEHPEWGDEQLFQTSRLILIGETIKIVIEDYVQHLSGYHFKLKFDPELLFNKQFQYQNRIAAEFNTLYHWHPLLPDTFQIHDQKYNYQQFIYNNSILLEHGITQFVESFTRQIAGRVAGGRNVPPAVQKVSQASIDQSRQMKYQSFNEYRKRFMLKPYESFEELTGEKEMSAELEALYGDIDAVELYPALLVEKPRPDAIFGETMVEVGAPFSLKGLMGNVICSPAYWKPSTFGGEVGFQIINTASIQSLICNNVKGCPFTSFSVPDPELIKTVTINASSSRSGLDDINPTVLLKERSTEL

Structure (SMILES): CC(=O)Oc1ccccc1C(=O)O [aspirin]
- effect of pretreatment on flushing from niacin (niacin-induced flushing): can suppress the flush

Structure (SMILES): COc1ccc2c(c1)c(CC(=O)O)c(C)n2C(=O)c1ccc(Cl)cc1 [indomethacin]
- endogenous production of PGE-2 and PGD-2 (rat macrophages): suppressed

Structure (SMILES): CS(=O)(=O)c1cc(F)cc2c3c(n(Cc4ccc(Cl)cc4)c12)[C@@H](CC(=O)O)CC3 [laropiprant]
- effect of pretreatment on flushing from niacin (niacin-induced flushing): substantially reduced, but fell far short of eliminating

Structure (SMILES): O=C(O)c1cccnc1 [niacin, pyridine-3-carboxylic acid]
- increase of levels of the major metabolite of PGD-2 (PGD-2): 400 to 800 fold
- time to decline of PGD-2 metabolite to near normal levels (PGD-2): 2 to 4 h
- time to increase of PGD-2 metabolite after ingestion (PGD-2): 12 to 45 min
- increase in prostacyclin (PGI-2) (prostacyclin (PGI-2)): 2 fold
- major urinary metabolite of PGE-2 (PGE-M) (prostacyclin (PGI-2)): does not increase
- raise of HDL cholesterol (HDL cholesterol): up to 45%

Structure (SMILES): CS(=O)(=O)c1ccc(C2=C(c3ccccc3)C(=O)OC2)cc1 [rofecoxib]
- effect of pretreatment on flushing from niacin (niacin-induced flushing): did not result in a reduction of flushing
- inhibition of COX-2 in vivo (COX-2): about 90%
